Experimental data reported in patent US5424204A, “Method for stabilizing glucose 6-phosphate dehydrogenase with hydroxylamines, aldehyde scavengers, dimethylthiocarbamoyl chloride or 2-(2-aminoethylamino) ethanol” (Kyowa Medex Co., Ltd., priority 1993, dated 1995).
Structures can show the parent of a compound that is named as a salt.

System: glucose 6-phosphate dehydrogenase
Assay: Stabilization of glucose 6-phosphate dehydrogenase in a reagent for measuring the activity of creatine kinase (residual activity after storage)
Assay type: biochemical
Settings: 10 mM additive in reagent solution 1 (pH 6.6), activity immediately after preparation = 100%; for Residual activity after 3 months (%): stored at 10° C. for 3 months; for Residual Activity after 12 months (%): stored at 10° C. for 12 months

Compound	Residual activity after 3 months (%)	Residual Activity after 12 months (%)
CN(C)C(=S)Cl [III, dimethylthiocarbamoyl chloride]	80.3	43.2
CC(C)=NNC(N)=S [II-16, acetone thiosemicarbazone]	79.8	41.5
Cl.NO [Compound I-1, hydroxylamine hydrochloride]	100.2	85.9
CNO [Compound I-9, N-methylhydroxylamine]	100.1	80.3
NO.NO.O=S(=O)(O)O [Compound I-2, hydroxylamine sulfate]	99.8	88.7
CCOC(=O)CNN [II-5, ethylhydrazinoaceate hydrochloride]	75.4	28.3
NCCNCCO [IV, 2-(2-aminoethylamino) ethanol]	98.7	81.1
CCNC(=S)NN [II-13, 4-ethyl-3-thiosemicarbazide]	90.2	62.1
NC(=S)C(N)=S [II-17, dithiooxyamide]	75.2	32.3
CC(C)(C)NO [Compound I-12, N-(tert-butyl)hydroxylamine]	75.5	22.2
Cl.ONC1CCCCC1 [Compound I-13, N-cyclohexylhydroxylamine hydrochloride]	92.1	80.2
NNC(=O)c1ccccc1 [II-1, benzoylhydrazine]	100.1	87.6
NNC(=O)c1cccnc1 [II-4, nicotinic acid hydrazide]	70.3	38.5
NO.O=C(O)C(=O)O [Compound I-3, hydroxylamine oxalate]	98.2	89.2
CON [Compound I-10, O-methylhydroxylamine]	99.7	82.3
Br.NNC1=NCCN1 [II-6, 2-hydrazino-2-imidazoline hydrobromide]	89.2	58.5

Further lines, results first:

Residual activity after 3 months (%)	Residual Activity after 12 months (%)	Compound
88.5	65.2	NNC(=O)C(=O)NN [II-3, oxalyldihydrazide]
99.8	86.5	COC(=O)NN [II-8, methyl carbazate]
96.8	78.9	Cl.NOCc1ccccc1 [Compound I-5, O-benzylhydroxylamine hydrochloride]
99.9	86.5	NNC(=O)Nc1ccccc1 [II-14, 4-phenylsemicarbazide]
82.3	45.6	CC(=O)NNC(N)=S [II-9, 1-acetylthiosemicarbazide]
65.8	20.1	CC(C)NNC(=O)c1ccncc1 [II-15, iproniazide]
102.2	88.3	CCOC(=O)NN [II-12, ethyl carbazate]
81.5	25.6	Cc1ccccc1N(O)C(=O)c1ccccc1 [Compound I-7, N-benzoyl-N-(2-methylphenyl)hydroxylamine]
99.9	88.9	Cl.NOCC(=O)O [Compound I-4, carboxymethoxylamine hydrochloride]
80.5	30.3	O=C(c1ccccc1)N(O)c1ccccc1 [Compound I-6, N-benzoyl-N-phenylhydroxylamine]
90.4	44.5	O=C(C=Cc1ccccc1)N(O)c1ccccc1 [Compound I-8, N-cinnamoyl-N-phenylhydroxylamine]
79.6	23.6	Cc1cccc(N(O)C(=O)C=Cc2ccccc2)c1C [Compound I-11, N-cinnamoyl-N-2,3-xylylhydroxylamine]
89.7	60.3	NNC(=O)c1cc2ccccc2cc1O [II-7, 3-hydroxy-2-naphthoenic acid hydrazide]
